Test results from patent publication US9376436B2, “2-(pyridin-2yl)-1, 7-diaza-spiro [4.4] nonane-6-one compound as voltage-gated sodium channels modulators” (CONVERGENCE PHARMACEUTICALS LIMITED, priority 2011, dated 2016).
Structures can show the parent of a compound that is named as a salt. Where two headings read alike, the source gives them in different places.

Target: T1, hNaV1.7 (Homo sapiens, UniProt Q15858)
T1 construct: expressed in transfected cells; host or cells: HEK293
Assay: QPatch NaV1.7 assay (whole-cell patch clamp, QPatch16x)
Format: cell-based
Conditions: HEK293-hNaV1.7 cells
Summary of the method: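 Automated whole-cell recordings in hNaV1.7-expressing HEK293 cells, holding at either −90 mV (mostly closed channels) or the half-inactivation voltage. Compounds applied cumulatively at four concentrations for 120 s each; peak current on 20 ms depolarisation to 0 mV fitted by Hill equation to yield pIC50.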

[1] = holding voltage V1/2 SSI (half of channels inactivated), read-out: QP Nav1.7 SSI vhalf pIC50 (converted)
[2] = holding voltage −90 mV (most channels closed), read-out: QP Nav1.7 −90 mV pIC50 (converted)

T1 sequence (Q15858 whole entry): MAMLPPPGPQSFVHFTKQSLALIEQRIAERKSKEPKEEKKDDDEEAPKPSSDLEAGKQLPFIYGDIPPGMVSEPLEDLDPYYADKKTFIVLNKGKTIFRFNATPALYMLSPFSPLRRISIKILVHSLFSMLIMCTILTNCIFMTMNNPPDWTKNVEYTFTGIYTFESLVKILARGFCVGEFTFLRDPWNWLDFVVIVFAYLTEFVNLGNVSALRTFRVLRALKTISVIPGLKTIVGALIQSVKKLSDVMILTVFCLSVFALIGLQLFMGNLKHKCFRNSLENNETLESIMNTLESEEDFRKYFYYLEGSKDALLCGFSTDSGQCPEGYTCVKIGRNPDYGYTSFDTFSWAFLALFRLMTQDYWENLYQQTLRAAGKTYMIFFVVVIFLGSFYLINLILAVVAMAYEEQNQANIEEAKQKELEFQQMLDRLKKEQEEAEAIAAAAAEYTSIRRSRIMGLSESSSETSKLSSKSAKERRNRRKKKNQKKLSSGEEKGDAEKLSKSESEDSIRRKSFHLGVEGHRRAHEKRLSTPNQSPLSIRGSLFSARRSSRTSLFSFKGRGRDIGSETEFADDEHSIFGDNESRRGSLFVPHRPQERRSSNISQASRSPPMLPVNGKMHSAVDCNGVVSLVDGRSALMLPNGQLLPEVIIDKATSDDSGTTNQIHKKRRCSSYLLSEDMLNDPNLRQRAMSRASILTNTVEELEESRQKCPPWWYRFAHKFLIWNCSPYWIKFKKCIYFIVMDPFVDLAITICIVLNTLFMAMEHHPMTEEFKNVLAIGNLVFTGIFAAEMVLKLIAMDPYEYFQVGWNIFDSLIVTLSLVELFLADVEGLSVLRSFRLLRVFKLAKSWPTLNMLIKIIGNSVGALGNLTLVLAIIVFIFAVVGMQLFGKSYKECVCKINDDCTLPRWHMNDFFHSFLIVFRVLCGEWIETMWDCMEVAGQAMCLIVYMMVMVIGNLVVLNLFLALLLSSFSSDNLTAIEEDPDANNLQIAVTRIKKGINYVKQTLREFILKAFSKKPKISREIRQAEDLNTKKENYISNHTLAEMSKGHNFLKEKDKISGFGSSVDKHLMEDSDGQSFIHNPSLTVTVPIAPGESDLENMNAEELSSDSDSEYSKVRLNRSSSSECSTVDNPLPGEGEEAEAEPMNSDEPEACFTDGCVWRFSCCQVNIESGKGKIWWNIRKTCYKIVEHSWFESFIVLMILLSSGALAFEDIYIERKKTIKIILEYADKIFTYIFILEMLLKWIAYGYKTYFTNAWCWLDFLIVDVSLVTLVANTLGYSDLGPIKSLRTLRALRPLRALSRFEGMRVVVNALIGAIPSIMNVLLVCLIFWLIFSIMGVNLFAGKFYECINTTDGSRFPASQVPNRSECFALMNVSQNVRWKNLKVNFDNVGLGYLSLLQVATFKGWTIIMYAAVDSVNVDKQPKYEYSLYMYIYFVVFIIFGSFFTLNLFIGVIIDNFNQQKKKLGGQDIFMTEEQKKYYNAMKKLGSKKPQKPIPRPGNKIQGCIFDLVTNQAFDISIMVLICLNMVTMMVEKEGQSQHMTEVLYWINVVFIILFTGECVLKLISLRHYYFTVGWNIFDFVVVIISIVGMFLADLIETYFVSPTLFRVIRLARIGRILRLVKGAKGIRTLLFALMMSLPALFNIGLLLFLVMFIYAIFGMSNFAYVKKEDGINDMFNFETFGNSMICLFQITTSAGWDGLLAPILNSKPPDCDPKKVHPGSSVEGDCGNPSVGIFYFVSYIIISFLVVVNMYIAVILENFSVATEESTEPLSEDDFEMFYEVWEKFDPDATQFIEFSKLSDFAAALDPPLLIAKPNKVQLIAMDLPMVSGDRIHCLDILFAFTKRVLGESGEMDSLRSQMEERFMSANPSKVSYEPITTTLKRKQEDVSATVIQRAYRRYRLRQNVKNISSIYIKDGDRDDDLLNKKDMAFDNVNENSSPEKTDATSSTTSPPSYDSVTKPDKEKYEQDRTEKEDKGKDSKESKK

Structure (SMILES)	IC50 [1] [µM]	IC50 [2] [µM]
CCOc1ccc(F)c(-c2ccnc([C@@H]3CC[C@@]4(CCN(C)C4=O)N3)c2C)c1 [Example 214, (2S,5S)-2-[4-(5-Ethoxy-2-fluoro-phenyl)-3-methyl-2-pyridyl]-7-methyl-1,7-diazaspiro[4.4]nonan-6-one hydrochloride]	3.98	31.6
CCCOc1cccc(-c2ccnc([C@H]3CC[C@@]4(CCN(C)C4=O)N3)c2)c1 [Example 179, (2R,5S)-7-Methyl-2-[4-(3-propoxyphenyl)-2-pyridyl]-1,7-diazaspiro[4.4]nonan-6-one hydrochloride]	0.794	31.6
CCOc1ccc(-c2ccnc([C@H]3CC[C@@]4(CCN(C)C4=O)N3)c2)cc1OCC [Example 190, (2R,5S)-2-[4-(3,4-Diethoxyphenyl)-2-pyridyl]-7-methyl-1,7-diazaspiro[4.4]nonan-6-one hydrochloride]	100	10000
CCOc1ccc(F)c(-c2cc(OC)nc([C@H]3CC[C@]4(CCN(C)C4=O)N3)c2)c1 (single isomer, unassigned) [Example 247, hydrochloride]	1.26	20
Cc1cc(-c2cc(C(F)(F)F)ccc2C(N)=O)cc([C@H]2CC[C@]3(CCN(C)C3=O)N2)n1 [Example 26, 2-[2-Methyl-6-[(2R,5R)-7-methyl-6-oxo-1,7-diazaspiro[4.4]nonan-2-yl]-4-pyridyl]-4-(trifluoromethyl)benzamide hydrochloride]	794	–
CN1CC[C@@]2(CC[C@H](c3cc(-c4ccc(F)c(F)c4)ccn3)N2)C1=O [Example 11, (2R,5S)-2-[4-(3,4-Difluorophenyl)-2-pyridyl]-7-methyl-1,7-diazaspiro[4.4]nonan-6-one hydrochloride]	25.1	200
Cc1cc(-c2ccc(C(F)(F)F)cc2)cc([C@@H]2CC[C@]3(CCNC3=O)N2)n1 [Example 95, (2S,5R)-2-[6-Methyl-4-[4-(trifluoromethyl)phenyl]-2-pyridyl]-1,7-diazaspiro[4.4]nonan-6-one hydrochloride]	12.6	100
CCOc1ccc(F)c(-c2cc([C@H]3CC[C@]4(CCN(C)C4=O)N3)nc(C)c2C)c1 [Example 141, (2R,5R)-2-[4-(5-Ethoxy-2-fluoro-phenyl)-5,6-dimethyl-2-pyridyl]-7-methyl-1,7-diazaspiro[4.4]nonan-6-one hydrochloride]	6.31	63.1
COc1cnc([C@H]2CC[C@@]3(CCN(C)C3=O)N2)cc1-c1ccc(C(F)(F)F)cc1 [Example 155, (2R,5S)-2-[5-Methoxy-4-[4-(trifluoromethyl)phenyl]-2-pyridyl]-7-methyl-1,7-diazaspiro[4.4]nonan-6-one hydrochloride]	3.98	39.8
Cc1ccn(-c2ccc(F)c(-c3ccnc([C@H]4CC[C@@]5(CCN(C)C5=O)N4)c3)c2)n1 [Example 182, (2R,5S)-2-[4-[2-Fluoro-5-(3-methylpyrazol-1-yl)phenyl]-2-pyridyl]-7-methyl-1,7-diazaspiro[4.4]nonan-6-one hydrochloride]	15.8	100
CCOc1cc(-c2cc(C)nc([C@H]3CC[C@@]4(CCN(C)C4=O)N3)c2)c(F)cc1C [Example 202, (2R,5S)-2-[4-(5-Ethoxy-2-fluoro-4-methyl-phenyl)-6-methyl-2-pyridyl]-7-methyl-1,7-diazaspiro[4.4]nonan-6-one hydrochloride]	3.16	31.6
CN1CC[C@@]2(CC[C@H](c3cc(-c4ccc(C(F)(F)F)cc4F)ccn3)N2)C1=O [Example 12, (2R,5S)-2-[4-[2-Fluoro-4-(trifluoromethyl)phenyl]-2-pyridyl]-7-methyl-1,7-diazaspiro[4.4]nonan-6-one hydrochloride]	10	50.1
CN1CC[C@@]2(CC[C@H](c3cc(-c4ccc(C(F)(F)F)cc4)ccn3)N2)C1=O [Example 52, (2R,5S)-7-Methyl-2-[4-(4-trifluoromethyl-phenyl)-pyridin-2-yl]-1,7-diaza-spiro[4.4]nonan-6-one hydrochloride]	6.31	25.1
COc1cc(C(F)(F)F)ccc1-c1cc([C@H]2CC[C@]3(CCN(C)C3=O)N2)ncc1C [Example 130, (2R,5R)-2-[4-[2-Methoxy-4-(trifluoromethyl)phenyl]-5-methyl-2-pyridyl]-7-methyl-1,7-diazaspiro[4.4]nonan-6-one hydrochloride]	7.94	158
CN1CC[C@@]2(CC[C@H](c3cc(-c4cccc(Cl)c4C#N)ccn3)N2)C1=O [Example 165, 2-Chloro-6-[2-[(2R,5S)-7-methyl-6-oxo-1,7-diazaspiro[4.4]nonan-2-yl]-4-pyridyl]benzonitrile hydrochloride]	100	158
Cc1cnc([C@@H]2CC[C@]3(CCN(C)C3=O)N2)cc1-c1ccc(C(F)(F)F)cc1 [Example 43, (2S,5R)-7-Methyl-2-[5-methyl-4-[4-(trifluoromethyl)phenyl]-2-pyridyl]-1,7-diazaspiro[4.4]nonan-6-one hydrochloride]	3.16	39.8

Structure (SMILES)	IC50 [1] [µM]	IC50 [2] [µM]
CN1CC[C@@]2(CC[C@H](c3cc(-c4ccccc4)ccn3)N2)C1=O [Example 6, (2R,5S)-7-Methyl-2-(4-phenyl-pyridin-2-yl)-1,7-diaza-spiro[4.4]nonan-6-one hydrochloride]	31.6	158
O=C1NCC[C@]12CC[C@H](c1cc(-c3ccc(C(F)(F)F)cc3)ccn1)N2 [Example 115, (2R,5R)-2-[4-[4-(Trifluoromethyl)phenyl]-2-pyridyl]-1,7-diazaspiro[4.4]nonan-6-one hydrochloride]	2.51	31.6
COc1ccc(F)cc1-c1ccnc([C@H]2CC[C@@]3(CCN(C)C3=O)N2)c1 [Example 10, (2R,5S)-2-[4-(5-Fluoro-2-methoxy-phenyl)-2-pyridyl]-7-methyl-1,7-diazaspiro[4.4]nonan-6-one hydrochloride]	50.1	3980
CN1CC[C@@]2(CC[C@H](c3cc(-c4ccc(Cl)cc4)ccn3)N2)C1=O [Example 13, (2R,5S)-2-[4-(4-Chlorophenyl)-2-pyridyl]-7-methyl-1,7-diazaspiro[4.4]nonan-6-one hydrochloride]	6.31	25.1
CCOc1ccc(F)c(-c2cc([C@@H]3CC[C@]4(CCN(C)C4=O)N3)nc(C)c2C)c1 [Example 143, (2S,5R)-2-[4-(5-Ethoxy-2-fluoro-phenyl)-5,6-dimethyl-2-pyridyl]-7-methyl-1,7-diazaspiro[4.4]nonan-6-one hydrochloride]	10	63.1
CC1(C)C[C@@]2(CC[C@H](c3cc(-c4ccc(C(F)(F)F)cc4)ccn3)N2)C(=O)N1 [Example 45, (2R,5S)-8,8-Dimethyl-2-[4-[4-(trifluoromethyl)phenyl]-2-pyridyl]-1,7-diazaspiro[4.4]nonan-6-one hydrochloride]	3.16	39.8
CCOc1ccc(F)c(-c2cc([C@H]3CC[C@@]4(CCN(C)C4=O)N3)nc(C)c2C)c1 [Example 144, (2R,5S)-2-[4-(5-Ethoxy-2-fluoro-phenyl)-5,6-dimethyl-2-pyridyl]-7-methyl-1,7-diazaspiro[4.4]nonan-6-one hydrochloride]	3.98	31.6
CCCOc1ccc(F)c(-c2cc(C)nc([C@H]3CC[C@@]4(CCN(C)C4=O)N3)c2)c1 [Example 196, (2R,5S)-2-[4-(2-Fluoro-5-propoxy-phenyl)-6-methyl-2-pyridyl]-7-methyl-1,7-diazaspiro[4.4]nonan-6-one hydrochloride]	0.1	1.58
Cc1cnc([C@H]2CC[C@@]3(CCN(C)C3=O)N2)cc1-c1ccc(C(F)(F)F)cc1 [Example 41, (2R,5S)-7-Methyl-2-[5-methyl-4-[4-(trifluoromethyl)phenyl]-2-pyridyl]-1,7-diazaspiro[4.4]nonan-6-one hydrochloride]	2	25.1
Cc1cc(-c2ccc(C(F)(F)F)cc2)cc([C@@H]2CC[C@@]3(CCNC3=O)N2)n1 [Example 97, (2S,5S)-2-[6-Methyl-4-[4-(trifluoromethyl)phenyl]-2-pyridyl]-1,7-diazaspiro[4.4]nonan-6-one hydrochloride]	1.26	20
CCOc1ccc(F)c(-c2cc(C)nc([C@H]3CC[C@@]4(CCNC4=O)N3)c2)c1 [Example 104, (2R,5S)-2-[4-(5-Ethoxy-2-fluoro-phenyl)-6-methyl-2-pyridyl]-1,7-diazaspiro[4.4]nonan-6-one hydrochloride]	0.158	1.58
CN1CCC[C@@]2(CC[C@@H](c3cc(-c4ccc(F)cc4)ccn3)N2)C1=O [Example 72, (2S,5R)-2-[4-(4-Fluoro-phenyl)-pyridin-2-yl]-7-methyl-1,7-diaza-spiro[4.5]decan-6-one hydrochloride]	20	158
CN1CC[C@@]2(CC[C@H](c3cc(-c4ccc(OC(F)F)cc4F)ccn3)N2)C1=O [Example 156, (2R,5S)-2-[4-(4-Difluoromethoxy-2-fluoro-phenyl)-pyridin-2-yl]-7-methyl-1,7-diaza-spiro[4.4]nonan-6-one hydrochloride]	20	126
CCOc1cccc(-c2cc(C)nc([C@H]3CC[C@@]4(CCN(C)C4=O)N3)c2)c1 [Example 207, (2R,5S)-2-[4-(3-Ethoxyphenyl)-6-methyl-2-pyridyl]-7-methyl-1,7-diazaspiro[4.4]nonan-6-one hydrochloride]	6.31	79.4
CCOc1ccc(F)c(-c2cc(C)nc([C@H]3CC[C@]4(CCN(C)C4=O)N3)c2)c1 [Example 121, (2R,5R)-2-[4-(5-Ethoxy-2-fluoro-phenyl)-6-methyl-pyridin-2-yl]-7-methyl-1,7-diaza-spiro[4.4]nonan-6-one hydrochloride]	0.631	12.6
